Activity calls are given as the source filed them. No cut-off for these calls is given here.
Key:
MDA-MB-231 [1] = experiment: Induction of apoptosis in human MDA-MB-231 cells assessed as early apoptotic cells at 5 uM incubated for 48 hrs by Annexin V-FITC/PI staining based flow cytometric analysis (reference value: 2.25 %); type: functional
[2] = Toxicity in female BALB/C mouse implanted with mouse 4T1 cells assessed as effect on body weight at 20 to 50 mg/kg, po administered every two days for 21 days; type: organism-based; settings: in vivo, 504 h, dose 20-50 mg/kg, time 21 day
[3] = Toxicity in female BALB/C mouse implanted with mouse 4T1 cells assessed as change in serum CREA level at 20 to 50 mg/kg, po administered every two days for 21 days; type: organism-based; settings: in vivo, 504 h, dose 20-50 mg/kg, time 21 day
MDA-MB-231 [4] = experiment: Cell cycle arrest in human MDA-MB-231 cells assessed as G2 phase cells at 20 uM incubated for 48 hrs by PI staining based flow cytometric analysis (reference value: 7.3%); type: functional
[5] = Toxicity in female BALB/C mouse implanted with mouse 4T1 cells assessed as change in WBC level at 20 to 50 mg/kg, po administered every two days for 21 days by routine blood analysis; type: organism-based; settings: in vivo, 504 h, dose 20-50 mg/kg, time 21 day
MDA-MB-231 [6] = experiment: Cell cycle arrest in human MDA-MB-231 cells assessed as G2 phase cells at 10 uM incubated for 48 hrs by PI staining based flow cytometric analysis (reference value: 7.3%); type: functional
[7] = Toxicity in female BALB/C mouse implanted with mouse 4T1 cells assessed as change in RBC level at 20 to 50 mg/kg, iv administered every two days for 21 days by routine blood analysis; type: organism-based; settings: in vivo, 504 h, dose 20-50 mg/kg, time 21 day
[8] = Toxicity in female BALB/C mouse implanted with mouse 4T1 cells assessed as heart damage at 20 to 50 mg/kg, po administered every two days for 21 days by H and E staining based analysis; type: organism-based; settings: in vivo, 504 h, dose 20-50 mg/kg, time 21 day
[9] = Toxicity in female BALB/C mouse implanted with mouse 4T1 cells assessed as liver damage at 20 to 50 mg/kg, po administered every two days for 21 days by H and E staining based analysis; type: organism-based; settings: in vivo, 504 h, dose 20-50 mg/kg, time 21 day
MDA-MB-231 [10] = experiment: Antiproliferative activity against human MDA-MB-231 cells assessed as reduction in cell viability incubated for 96 hrs by MTT assay; settings: MDA-MB-231, 96 h
MDA-MB-231 [11] = experiment: Induction of apoptosis in human MDA-MB-231 cells assessed as necrotic cells at 2.5 uM incubated for 48 hrs by Annexin V-FITC/PI staining based flow cytometric analysis (reference value: 1.63%); type: functional
MDA-MB-231 [12] = experiment: Induction of apoptosis in human MDA-MB-231 cells assessed as necrotic cells at 20 uM incubated for 48 hrs by Annexin V-FITC/PI staining based flow cytometric analysis (reference value: 1.63%); type: functional
[13] = Toxicity in female BALB/C mouse implanted with mouse 4T1 cells assessed as change in serum AST level at 20 to 50 mg/kg, po administered every two days for 21 days; type: organism-based; settings: in vivo, 504 h, dose 20-50 mg/kg, time 21 day
[14] = Toxicity in female BALB/C mouse implanted with mouse 4T1 cells assessed as effect on neutrophils at 20 to 50 mg/kg, po administered every two days for 21 days by routine blood analysis; type: organism-based; settings: in vivo, 504 h, dose 20-50 mg/kg, time 21 day
[15] = Toxicity in female BALB/C mouse implanted with mouse 4T1 cells assessed as kidney damage at 20 to 50 mg/kg, po administered every two days for 21 days by H and E staining based analysis; type: organism-based; settings: in vivo, 504 h, dose 20-50 mg/kg, time 21 day
[16] = Toxicity in female BALB/C mouse implanted with mouse 4T1 cells assessed as effect on monocytes at 20 to 50 mg/kg, iv administered every two days for 21 days by routine blood analysis; type: organism-based; settings: in vivo, 504 h, dose 20-50 mg/kg, time 21 day
MDA-MB-231 [17] = experiment: Cell cycle arrest in human MDA-MB-231 cells assessed as G1 phase cells at 20 uM incubated for 48 hrs by PI staining based flow cytometric analysis (reference value: 76.7%); type: functional
MDA-MB-231 [18] = experiment: Cell cycle arrest in human MDA-MB-231 cells assessed as G2 phase cells at 5 uM incubated for 48 hrs by PI staining based flow cytometric analysis (reference value: 7.3%); type: functional
[19] = Toxicity in female BALB/C mouse implanted with mouse 4T1 cells assessed as change in serum ALT level at 20 to 50 mg/kg, iv administered every two days for 21 days; type: organism-based; settings: in vivo, 504 h, dose 20-50 mg/kg, time 21 day
MDA-MB-231 [20] = experiment: Cell cycle arrest in human MDA-MB-231 cells assessed as S phase cells at 5 uM incubated for 48 hrs by PI staining based flow cytometric analysis (reference value: 16.0%); type: functional
[21] = Toxicity in female BALB/C mouse implanted with mouse 4T1 cells assessed as change in serum BUN level at 20 to 50 mg/kg, po administered every two days for 21 days; type: organism-based; settings: in vivo, 504 h, dose 20-50 mg/kg, time 21 day
4T1 = experiment: Antitumor activity against mouse 4T1 cells implanted in female BALB/C mouse assessed as inhibition of tumor weight at 20 mg/kg, iv administered every two days for 21 days relative to control; type: functional, organism-based; settings: time 21.0 day
MDA-MB-231 [22] = experiment: Cell cycle arrest in human MDA-MB-231 cells assessed as G2 phase cells at 20 uM incubated for 72 hrs by PI staining based flow cytometric analysis (reference value: 14.6%); type: functional
[23] = Toxicity in female BALB/C mouse implanted with mouse 4T1 cells assessed as effect on lymphocytes at 20 to 50 mg/kg, iv administered every two days for 21 days by routine blood analysis; type: organism-based; settings: in vivo, 504 h, dose 20-50 mg/kg, time 21 day
[24] = Toxicity in female BALB/C mouse implanted with mouse 4T1 cells assessed as spleen damage at 20 to 50 mg/kg, po administered every two days for 21 days by H and E staining based analysis; type: organism-based; settings: in vivo, 504 h, dose 20-50 mg/kg, time 21 day
MDA-MB-231 [25] = experiment: Cell cycle arrest in human MDA-MB-231 cells assessed as S phase cells at 10 uM incubated for 48 hrs by PI staining based flow cytometric analysis (reference value: 16.0%); type: functional
[26] = Toxicity in female BALB/C mouse implanted with mouse 4T1 cells assessed as change in serum CK level at 20 to 50 mg/kg, po administered every two days for 21 days; type: organism-based; settings: in vivo, 504 h, dose 20-50 mg/kg, time 21 day
MDA-MB-231 [27] = experiment: Cell cycle arrest in human MDA-MB-231 cells assessed as S phase cells at 20 uM incubated for 72 hrs by PI staining based flow cytometric analysis (reference value: 28.7%); type: functional
[28] = Toxicity in female BALB/C mouse implanted with mouse 4T1 cells assessed as effect on monocytes at 20 to 50 mg/kg, po administered every two days for 21 days by routine blood analysis; type: organism-based; settings: in vivo, 504 h, dose 20-50 mg/kg, time 21 day
[29] = Toxicity in female BALB/C mouse implanted with mouse 4T1 cells assessed as change in serum LDH level at 20 to 50 mg/kg, iv administered every two days for 21 days; type: organism-based; settings: in vivo, 504 h, dose 20-50 mg/kg, time 21 day
MDA-MB-231 [30] = experiment: Induction of apoptosis in human MDA-MB-231 cells assessed as late apoptotic cells at 10 uM incubated for 48 hrs by Annexin V-FITC/PI staining based flow cytometric analysis (reference value: 1.06%); type: functional
[31] = Toxicity in female BALB/C mouse implanted with mouse 4T1 cells assessed as kidney damage at 20 to 50 mg/kg, iv administered every two days for 21 days by H and E staining based analysis; type: organism-based; settings: in vivo, 504 h, dose 20-50 mg/kg, time 21 day
[32] = Toxicity in female BALB/C mouse implanted with mouse 4T1 cells assessed as effect on neutrophils at 20 to 50 mg/kg, iv administered every two days for 21 days by routine blood analysis; type: organism-based; settings: in vivo, 504 h, dose 20-50 mg/kg, time 21 day
MDA-MB-231 [33] = experiment: Induction of autophagy in human MDA-MB-231 cells assessed as increase in beclin-1 expression level incubated for 48 hrs by Western blot analysis; type: functional, cell-based; settings: dose 5-20 µM

Structure (SMILES): CCC(=O)NC(n1cnc2c(Nc3cc(OC)c(OC)c(OC)c3)nc(N)nc21)C(Cl)(Cl)Cl (centres undefined)
- Activity (MDA-MB-231 [1]): 4.37%
- Activity [2]: Non-Toxic
- Activity [3]: Non-Toxic
- Activity (MDA-MB-231 [4]): 29.4%
- Activity [5]: Non-Toxic
- Activity (MDA-MB-231 [6]): 10.6%
- Activity [7]: Non-Toxic
- Activity [8]: Non-Toxic
- Activity [9]: Non-Toxic
- IC50 (MDA-MB-231 [10]): 1.43 µM
- Activity (MDA-MB-231 [11]): 1.57%
- Activity (MDA-MB-231 [12]): 0.99%
- Activity [13]: Non-Toxic
- Activity [14]: Non-Toxic
- Activity [15]: Non-Toxic
- Activity [16]: Non-Toxic
- Activity (MDA-MB-231 [17]): 59%
- Activity (MDA-MB-231 [18]): 8.6%
- Activity [19]: Non-Toxic
- Activity (MDA-MB-231 [20]): 28.6%
- Activity [21]: Non-Toxic
- Activity (4T1): inactive
- Activity (MDA-MB-231 [22]): 51.1%
- Activity [23]: Non-Toxic
- Activity [24]: Non-Toxic
- Activity (MDA-MB-231 [25]): 11.9%
- Activity [26]: Non-Toxic
- Activity (MDA-MB-231 [27]): 12.5%
- Activity [28]: Non-Toxic
- Activity [29]: Non-Toxic
- Activity (MDA-MB-231 [30]): 2.04%
- Activity [31]: Non-Toxic
- Activity [32]: Non-Toxic
- Activity (MDA-MB-231 [33]): Dose-Dependent Effect
